# Key:
# GAB2-pS210 = assay: In vitro dephosphorylation of GAB2-pS210 (Western blot); type: biochemical, human; conditions: GAB2-pS210 relative to GAB2, Calyculin A 20 nM 12 min in HeLa Kyoto cells, recombinant PP1c 1 µM, 1 h at 30 °C in lysate
# Experimental: pEGFP(C1)-14-3-3β or pCMV-GAB2-3FLAG was transfected into HeLa Kyoto cells as described in the respective section for 24 h. Cells were incubated with or w/o 20 nM Calyculin A (# 9902 S, Cell Signaling Technology) in complete growth media for 12 min. Cells were washed twice on ice with cold PBS and after addition of 500 µL lysis buffer (100 mM NaCl, 10 mM Tris, 0.1% IGEPAL, 1 mM EDTA, 1 mM EGTA, 20 nM Calyculin A, 1x cOmplete Mini protease inhibitor cocktail (Sigma), 2 mM DTT, 2 mM MnCl2) cells were scraped from plates, lysed by 10 pushes through an injection needle and the insoluble fraction was pelleted by centrifugation (10 min, 10^4 rcf, 4 °C). […] Beads were then washed three times with lysis buffer and samples were eluted in 1x SDS sample buffer by heating to 95 °C for 10 min and further analyzed by SDS PAGE for 14-3-3/GAB2 association and phosphorylation status of GAB2-pS210.
# For SDS-PAGE, samples were loaded on NuPAGE™ 4-12% Bis-Tris protein gels (Invitrogen) and gel electrophoresis was performed at 180 V constant in 1x MOPS buffer. […] All blots were quantified using raw images and ImageLab software (v6.0.1, BioRad): Files were imported and analyzed without further modifications. […] The quantification was exported from the analysis table and measurements of background adjusted band volumes where used for further normalization steps and graphical depiction. […]
# [1] = system: GAB2/GFP-14-3-3β interaction; assay: GAB2/14-3-3 binding assay (GFP-14-3-3β pull-down, Western blot); design: species or system human
# Experimental: pEGFP(C1)-14-3-3β or pCMV-GAB2-3FLAG was transfected into HeLa Kyoto cells as described in the respective section for 24 h. Cells were incubated with or w/o 20 nM Calyculin A (# 9902 S, Cell Signaling Technology) in complete growth media for 12 min. Cells were washed twice on ice with cold PBS and after addition of 500 µL lysis buffer (100 mM NaCl, 10 mM Tris, 0.1% IGEPAL, 1 mM EDTA, 1 mM EGTA, 20 nM Calyculin A, 1x cOmplete Mini protease inhibitor cocktail (Sigma), 2 mM DTT, 2 mM MnCl2) cells were scraped from plates, lysed by 10 pushes through an injection needle and the insoluble fraction was pelleted by centrifugation (10 min, 10^4 rcf, 4 °C). Supernatants were then subjected to incubation with 1 µM recombinant PP1c (if not indicated otherwise) or buffer for 1 h at 30 °C. […] Next, we subjected samples to immunoprecipitation/pull-down using 25 µL of α-FLAG M2 magnetic bead slurry (Sigma-Aldrich) or an equal volume of bead-coupled α-GFP nanobodies (EMBL PEPcore Core Facility) for 2 h at 4 °C. Beads were then washed three times with lysis buffer and samples were eluted in 1x SDS sample buffer by heating to 95 °C for 10 min and further analyzed by SDS PAGE for 14-3-3/GAB2 association and phosphorylation status of GAB2-pS210.
# For SDS-PAGE, samples were loaded on NuPAGE™ 4-12% Bis-Tris protein gels (Invitrogen) and gel electrophoresis was performed at 180 V constant in 1x MOPS buffer. Samples were transferred onto CN blotting membranes (0.45 µm, neoLab) by wet blotting. Membranes were stained using Ponceau, followed by blocking with Tris-buffered saline with 0.1% Tween (TBS-T) containing 5% (w/v) non-fat milk for 45 min at room temperature. After three washes (5 min), membranes were then incubated with the following antibodies in TBS-T with 5% BSA overnight at 4 °C: α-GFP (1:2000, Abcam, ab6556), α-GAB2 (1:1000, CST, #3239), α-GAB2-pS210 (1:250, Symansis, customized purification), α-FLAG (1:1000, M2, Sigma-Aldrich, F3165), α-pan14-3-3 (1:500, SCBT, sc-629), α-PP1 (1:1000, SCBT, sc-7482), α-PP2A (1:1000, SCBT, sc-130237) or α-6His (1:2000, Abcam, ab9108). Afterwards blots were washed three times in TBS-T and incubated with goat anti-mouse IgG-peroxidase conjugate (1:2500, Sigma, A0168), donkey anti-rabbit IgG-horseradish peroxidase (HRP) conjugate (1:2500, GE Healthcare, GENA934), or rabbit anti-sheep IgG (H + L) HRP conjugate (1:2500, Thermo Fisher Scientific, 61-8620) for 2 h at room temperature. […] All blots were quantified using raw images and ImageLab software (v6.0.1, BioRad): Files were imported and analyzed without further modifications. […] The quantification was exported from the analysis table and measurements of background adjusted band volumes where used for further normalization steps and graphical depiction. […]
# PP1/PP2A = conditions: 20 nM Calyculin A in cell culture medium and lysis buffer; ref PMID 30338897; cited from earlier work
# Description: page 8: an adjusted p-value <0.01 are highlighted in bold in the heat-map comparing PP1c/PP2Ac. […] Furthermore, this new comparison also brought to our attention an apparently very strong differential effect of Pro in +1. We have therefore synthesized the Cterm peptide AAAApTPFGAK. Like in the case of ba ...
# [2] = system: mKate2-GAB2 localization in HeLa Kyoto cells; assay: GAB2 recruitment to the plasma membrane, live-cell confocal microscopy, HeLa Kyoto; type: cell-based, human; conditions: starved, 5 min, EGF 100 ng/mL, PDP-Nal/PDPm-Nal 50 µM, n = 44/56/31 cells for EGF/PDP-Nal/PDPm-Nal
# Experimental: (§1) The cells were seeded on 8-well ibiTreat µslides (Ibidi) and transfected as described in the respective section. In order to serum-starve cells for 45 min to 1 h before imaging, cells were washed twice with warm PBS and cultivated in 200 µL DMEM without FBS and phenol red (Gibco) supplemented with 1 g/L L-glutamine and 1% penicillin/streptomycin. For imaging, cells were then mounted in an Okolab stage incubator system (37 °C, 5% CO2 using an H101-CRYO-BL temperature controller, CO2-O2 UNIT-BL gas controller, H101-HM active humidity controller and incubation chamber H101-NIKON-TI-S-ER). All images were acquired with the A1R Confocal Scanning System equipped on a Nikon Ti-E inverted microscope installed with an Apo TIRF 100x DIC N2 1.49 NA Oil objective. […] Images were acquired using the GaAsP detectors controlled with the NIS Elements 4.50 operating software. Time-lapse-experiments consisted of an image acquisition interval of 15 s for at least 12 min for each sample condition separately using an exposure time of 0.5 frames per second. Cells were treated after frame 3 by adding 100 µL of starvation media (see above) with 300 ng/mL EGF (Gibco) or 150 µM PDP(m)-Nal resulting in final concentrations of 100 ng/mL for EGF and 50 µM for PDPs.
# For image analysis, microscopy files were loaded into Fiji v2.0.0-rc-34/1.50a. […]
# [3] = system: mKate2-GAB2 localization in Caco-2 BBe1 cells; assay: GAB2 recruitment to the plasma membrane, live-cell confocal microscopy, Caco-2 BBe1; type: cell-based, human; conditions: Caco-2 BBe1, starved, 12 min; EGF 100 ng/mL; PDP-Nal/PDPm-Nal 50 µM; n = 19/13/13 cells for EGF/PDP-Nal/PDPm-Nal
# Experimental: as §1, with “Cells were treated after frame 3 by adding 100 µL of starvation media (see above) with 300 ng/mL EGF (Gibco) or 150 µM PDP(m)-Nal resulting in final concentrations of 100 ng/mL for EGF and 50 µM for PDPs.” left out
# (§2) Supplementary Figure 8. […] For Caco-2 BBe1 the following number (n) of cells were analyzed: 19 (EGF), 13 (PDP-Nal), 13 (PDPm-Nal); for SW-480: 20 (EGF), 19 (PDP-Nal), […]
# [4] = system: mKate2-GAB2 localization in SW-480 cells; assay: GAB2 recruitment to the plasma membrane, live-cell confocal microscopy, SW-480; type: cell-based, human; conditions: SW-480, starved, 12 min; EGF 100 ng/mL; PDP-Nal/PDPm-Nal 50 µM; n = 20/19/26 cells for EGF/PDP-Nal/PDPm-Nal
# Experimental: as §1, with “Cells were treated after frame 3 by adding 100 µL of starvation media (see above) with 300 ng/mL EGF (Gibco) or 150 µM PDP(m)-Nal resulting in final concentrations of 100 ng/mL for EGF and 50 µM for PDPs.” left out
# as §2
Compound,p-level of GAB2 pS210 (GAB2-pS210),"interaction of GAB2 with overexpressed GFP-14-3-3β ([1]; Calyculin A 20 nM in cells, recombinant PP1c in lysate 1 h at 30 °C, PP1c-concentration-dependent, three independent experiments)","interaction of GAB2 with GFP-14-3-3β, PP1c pre-inhibited ([1]; recombinant PP1c mixed with equimolar Calyculin A for 5–10 min before addition to lysate)",stabilization of phosphorylation of PP1/PP2A substrate sites (such as Ser259 of CRAF/Raf-1) (PP1/PP2A),GAB2 recruitment to the plasma membrane [2],GAB2 recruitment to the plasma membrane [3],GAB2 recruitment to the plasma membrane [4]
"COC[C@@H]([C@H](O)[C@H](O)C(=O)NCC[C@H](C)c1nc(/C=C/C[C@@H]2O[C@]3(C[C@@H](O)[C@@H]2C)O[C@H]([C@H](C[C@H](O)[C@H](C)[C@H](O)[C@H](C)/C=C(C)/C(C)=C/C=C/C(C)=C\C#N)OC)[C@H](OP(=O)(O)O)C3(C)C)co1)N(C)C [Calyculin A, reference compound]",increased,strongly increased,abolishes the effect,stabilize,,,
EGF: epidermal growth factor (Gibco),,,,,GAB2 recruitment to the plasma membrane,GAB2 recruitment to the plasma membrane,GAB2 recruitment to the plasma membrane

# Source: article PMC7367873, “Dissecting the sequence determinants for dephosphorylation by the catalytic subunits of phosphatases PP1 and PP2A” (Nature Communications, 2020)
